Reference: US10780057B2, “Casein-based silica dual drug-loading composite microcapsule and preparation method therefor” (SHAANXI UNIVERSITY OF SCIENCE & TECHNOLOGY, priority 2016, dated 2020)

Legend:
[1] = Cumulative drug release from casein-based silica dual drug-loaded composite microcapsule; format: physicochemical; conditions: after 40 h; casein-based SiO2 dual-loaded microcapsules; drug A ibuprofen on outer wall of capsule, drug B aspirin in core of capsule
Source text: (§1) The samples used in Table 1 were the casein-based SiO2 dual-loaded microcapsules obtained by loading the drug A-buprofen on the outer wall of the capsule and the drug B aspirin in the core of the capsule.

[2] = Drug loading efficiency of casein-based silica dual drug-loaded composite microcapsule; format: physicochemical; conditions: casein-based SiO2 dual-loaded microcapsules; drug A ibuprofen on outer wall of capsule, drug B aspirin in core of capsule
Source text: as §1

CC(=O)Oc1ccccc1C(=O)O [Drug B: aspirin, aspirin]
40 h cumulative release rate (%) [1]: 60% | Drug loading efficiency (%) [2]: 86%

CC(C)Cc1ccc(C(C)C(=O)O)cc1 (stereo not shown) [Drug A: ibuprofen, ibuprofen]
40 h cumulative release rate (%) [1]: 88% | Drug loading efficiency (%) [2]: 69%
